# In patent publication US20120100109A1, “Method for increasing the replication of oncolytic HSVs in highly resistant tumor cells using mTOR pathway and PI3K inhibitors” (priority 2010, published 2012):
# Legend:
# HCT116 = test: Baco-1 virus yield with or without rapamycin, HCT116 cells; type: cell-based; conditions: HCT116 (colon); Baco-1 yield, well with rapamycin / well without
# MCF-7 = test: Baco-1 virus yield with or without rapamycin, MCF-7 cells; type: cell-based, human; conditions: MCF-7 (breast); Baco-1 yield, well with rapamycin / well without
# Procedure: (§1) A. EC9706 cells were either preincubated with rapamycin overnight (Pre-Inf) or incubated with the drug during the virus infection (During-Inf). They were then infected with Baco-1 at 0.1 pfu/cell and for 72 h. Fold increase in virus yield was calculated by dividing […]. […] B. MCF-7 and HeLa cells were infected with Baco-1 at 0.01 pfu/cell for 1 h. Then the cells were cultured in medium without (control) or with rapamycin at a concentration of 100 nM for 72 h before harvesting for virus titration.
# Hep3B = test: Baco-1 virus yield with or without rapamycin, Hep3B cells; type: cell-based; conditions: Hep3B (liver); Baco-1 yield, well with rapamycin / well without
# SW480 = test: Baco-1 virus yield with or without rapamycin, SW480 cells; type: cell-based; conditions: SW480 (colon); Baco-1 yield, well with rapamycin / well without
# DLD-1 = test: Baco-1 virus yield with or without rapamycin, DLD-1 cells; type: cell-based; conditions: DLD-1 (colon); Baco-1 yield, well with rapamycin / well without
# HepG2 = test: Baco-1 virus yield with or without rapamycin, HepG2 cells; type: cell-based; conditions: HepG2 (liver); Baco-1 yield, well with rapamycin / well without
# 293T = test: Baco-1 virus yield with or without rapamycin, 293T cells; type: cell-based; conditions: 293T (kidney); Baco-1 yield, well with rapamycin / well without
# HuH-7 = test: Baco-1 virus yield with or without rapamycin, HuH-7 cells; type: cell-based; conditions: HuH-7 (liver); Baco-1 yield, well with rapamycin / well without
# PANC-1 = test: Baco-1 virus yield with or without rapamycin, PANC-1 cells; type: cell-based; conditions: PANC-1 (pancreas); Baco-1 yield, well with rapamycin / well without
# EC9706 cells [1] = test: Yield of other HSVs (17+, FusOn-H2, ApE-Mir-3) in EC9706 cells with or without rapamycin (FIG. 4); type: cell-based, human; conditions: EC9706, 0.1 pfu/cell, rapamycin 100 nM
# From the text: In another preferred embodiment of the present invention the potentiating effect of rapamycin on virus replication in highly resistant tumor cells is applied to other oncolytic HSVs, including strain 17 (17^+), a wild-type HSV-1, FusOn-H2, which is constructed from an HSV-2 by mutating the N-terminal region of the ICP 10 gene (Fu, et al., A Mutant Type 2 Herpes Simplex Virus Deleted for the Protein Kinase Domain of the ICP10 Gene Is a Potent Oncolytic Virus, Mol. Ther. 2006; 13:882-90), and ApE-Mir-3, an HSV-1-based oncolytic virus in which the glycoprotein H (gH) gene is controlled by tissue-specific microRNAs (miRNAs), including let-7 and mir-122. To that end, EC9706 cells are infected with these viruses at 0.1 pfu/cell for 1 h and then cultured the cells in media with or without rapamycin at a concentration of 100 nM. […] Replication of the HSV-2-based oncolytic virus, FusOn-H2, is increased by approximately 5-fold, similar to those seen with Baco-1.
# EC9706 cells were infected with three other types of oncolytic HSVs, including FusOn-H2 (an oncolytic HSV derived from HSV-2, while Baco-1 was derived from HSV-1) and Ape-Mir3 (an oncolytic HSV specifically targets to hepatocellular carcinoma), at 0.1 pfu/cell and then incubated with medium without or with rapamycin (100 nM) for 72 h before harvesting for virus titration.
# MDA-MB-435 = test: Baco-1 virus yield with or without rapamycin, MDA-MB-435 cells; type: cell-based; conditions: MDA-MB-435 (breast); Baco-1 yield, well with rapamycin / well without
# EC9706 cells [2] = test: Baco-1 virus yield (plaque assay) with or without drug, EC9706 cells; type: cell-based, human
# Procedure: as §1
# HeLa = test: Baco-1 virus yield with or without rapamycin, HeLa cells; type: cell-based; conditions: HeLa (cervix); Baco-1 yield, well with rapamycin / well without
# Procedure: as §1
# MPanc-96 = test: Baco-1 virus yield with or without rapamycin, MPanc-96 cells; type: cell-based; conditions: MPanc-96 (pancreas); Baco-1 yield, well with rapamycin / well without
# [3] = test system: resistant tumor cells (EC9706, MCF-7, HeLa); test: Baco-1 virus yield in resistant tumor cells with or without rapamycin (FIG. 2B, 2C); type: cell-based
# Procedure: FIG. 2. […] Virus yield, as determined by plaque assay. Values represent the mean±SD of triplicate experiments.
# as §1
# MDA-MB-231 = test: Baco-1 virus yield with or without rapamycin, MDA-MB-231 cells; type: cell-based; conditions: MDA-MB-231 (breast); Baco-1 yield, well with rapamycin / well without
# A549 = test: Baco-1 virus yield with or without rapamycin, A549 cells; type: cell-based; conditions: A549 (lung); Baco-1 yield, well with rapamycin / well without
# [4] = test system: highly resistant tumor cells (EC9706, MCF-7 and Hela cells); test: Spread and replication of Baco-1 (GFP) in highly resistant tumor cell monolayers (FIG. 3B, 3C); type: cell-based; conditions: infected cells incubated with inhibitor
# From the text: Because Baco-1 contains the Green Fluorescent Protein (GFP) gene, it is possible to visualize GFP expression during virus infection and thus monitor the spread of virus among tumor cells.
# The effect of PI3K inhibitor, LY294002, on the replication of Baco-1 is examined in these cells. The three highly resistant tumor cell lines are infected with Baco-1, with or without the presence of LY294002 in the medium.
# In the same experiment, three highly resistant tumor cells (EC9706, MCF-7 and Hela cells) are infected with Baco-1 at 0.01 pfu/cell and incubated without or with rapamycin at a concentration of 100 nM, or LY294002 at 50 μM concentration.
structure (smiles),measurement,setting,value
CO[C@H]1C[C@@H]2CC[C@@H](C)[C@@](O)(O2)C(=O)C(=O)N2CCCC[C@H]2C(=O)O[C@H]([C@H](C)C[C@@H]2CC[C@@H](O)[C@H](OC)C2)CC(=O)[C@H](C)/C=C(\C)[C@@H](O)[C@@H](OC)C(=O)[C@H](C)C[C@H](C)/C=C/C=C/C=C/1C [rapamycin],Fold of change in virus yield,HCT116,0.5
same,Fold of change in virus yield,MCF-7,4.86
same,Fold of change in virus yield,Hep3B,1.10
same,Fold of change in virus yield,SW480,5.31
same,Fold of change in virus yield,DLD-1,1.02
same,Fold of change in virus yield,HepG2,1.04
same,Fold of change in virus yield,293T,8.01
same,Fold of change in virus yield,HuH-7,0.8
same,Fold of change in virus yield,PANC-1,0.99
same,Increase in replication of ApE-Mir-3,EC9706 cells [1],2.5 fold
same,Increase in replication of FusOn-H2,EC9706 cells [1],approximately 5 fold
same,Increase in virus yield of strain 17+ (wild-type HSV-1),EC9706 cells [1],more than 10 fold
same,Increase in yield of other oncolytic HSVs (pooled statement),EC9706 cells [1]; 72 h,3-10 folds
same,Fold of change in virus yield,MDA-MB-435,0.6
same,Fold of change in virus yield,"EC9706 cells [2]; EC9706 (esophagus), Baco-1 yield, well with rapamycin / well without",5.98
same,Fold increase in virus yield,"EC9706 cells [2]; EC9706 cells, Baco-1 0.1 pfu/cell, 72 h, drug in the medium, FIG. 2A",~6 fold
same,Fold of change in virus yield,HeLa,3.0
same,Fold of change in virus yield,MPanc-96,0.55
same,Fold increase in virus yield,"[3]; MCF-7 and HeLa cells, Baco-1 0.01 pfu/cell, rapamycin 100 nM, 72 h, FIG. 2B",3-5 fold
same,Virus yield in the presence of rapamycin,"[3]; resistant tumor cells, Baco-1, FIG. 2C",~5×10^6 pfu
same,Fold of change in virus yield,MDA-MB-231,0.87
same,Fold of change in virus yield,A549,0.42
CC[n+]1c(/C=C/N(C)c2ccccc2)n(-c2ccccc2)c2ccc(-c3nc4ccccc4s3)cc21.[I-] [Akt Inhibitor IV],Effect on Baco-1 replication,[4],does not result in any significant increase in Baco-1 replication
